Measured values from patent US20120015032A1, “COMBINATION PREPARATION COMPRISING INHIBITOR OF HMG-COA REDUCTASE AND ASPIRIN AND METHOD FOR MANUFACTURING THE SAME” (HANALL PHARMACEUTICAL COMPANY, LTD., priority 2007, published 2012).

Tests used:
Type in all cases: in vivo, rat
SHR rats = experiment: Test of antihypertensive effect in rats; settings: light, p.o.
Protocol: (§1) Animal tests supporting the effects of the present invention were carried out as described in Table 10 below. [table]

SD rats = experiment: Test of antiplatelet aggregation effect (bleeding time) in rats
Protocol: as §1

rats = experiment: Test of comparison of gastric mucosal injury in rats (index of gastric mucosal bleeding); settings: Table 16
[1] = Day 0, simvastatin 5 mg/kg alone
[2] = Day 5, simvastatin 5 mg/kg alone

| SMILES | Diastolic blood pressure (DBP) (SHR rats; [1]) | Mean blood pressure (MBP) (SHR rats; [1]) | Systolic blood pressure (SBP) (SHR rats; [1]) | Diastolic blood pressure (DBP) (SHR rats; [2]) | Mean blood pressure (MBP) (SHR rats; [2]) | Systolic blood pressure (SBP) (SHR rats; [2]) | Bleeding time (SD rats; SD rats, simvastatin alone, light conditions, p.o., 2 hrs after administration) | occurrence of gastrointestinal disturbance (rats) | platelet aggregation inhibitory effect (SD rats; rats, bleeding time, summary of Table 12) |
| --- | --- | --- | --- | --- | --- | --- | --- | --- | --- |
| CCC(C)(C)C(=O)O[C@H]1C[C@@H](C)C=C2C=C[C@H](C)[C@H](CC[C@@H]3C[C@@H](O)CC(=O)O3)[C@H]21 [simvastatin] | 124.3 ± 15.5 | 139.0 ± 12.4 | 171.0 ± 8.7 | 125.1 ± 17.1 | 131.3 ± 12.6 | 173.9 ± 9.2 | 782 ± 429 s | – | – |
| CC(=O)Oc1ccccc1C(=O)O [aspirin] | – | – | – | – | – | – | – | increased in proportion to an increase in the dose of aspirin | increased in proportion to the dose of aspirin |
